Laboratory results reported in PMC8689653 (ACS Catalysis, 2021).

Tested on: Lp-NOX
Assay: NADH oxidation, absorbance at […] nm, Michaelis-Menten fit
Format: biochemical, Lactiplantibacillus pentosus
Settings: free enzyme; 0.2 mM NADH, 0.025-0.2 mM flavin, 25 mM phosphate pH 7, 30 °C

Compound | Km [µM]
Cc1cc2nc3c(=O)[nH]c(=O)nc-3n(C[C@H](O)[C@H](O)[C@H](O)COP(=O)(O)O)c2cc1C [FMN] | 215 ± 100
Cc1cc2nc3c(=O)[nH]c(=O)nc-3n(C[C@H](O)[C@H](O)[C@H](O)COP(=O)(O)OP(=O)(O)OC[C@H]3O[C@@H](n4cnc5c(N)ncnc54)[C@H](O)[C@@H]3O)c2cc1C [FAD] | 41 ± 20
